Source: patent US6534524B1, “Indazole compounds and pharmaceutical compositions for inhibiting protein kinases, and methods for their use” (Agouron Pharmaceuticals, Inc., priority 1999, dated 2003)

system: human umbilical vein endothelial cells (HUVEC); experiment: HUVEC proliferation assay (VEGF-stimulated, MTT); format: cell-based; details: Homo sapiens, HUVEC, + albumin; read-out: HUVEC + albumin IC50;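 as to % inhibition of the proliferation of HUVEC: relative to VEGF-stimulated control minus starvation-medium baseline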
Method: HUVEC Proliferation Assay
This assay determines the ability of a test compound to inhibit the growth factor-stimulated proliferation of human umbilical vein endothelial cells (“HUVEC”). HUVEC cells (passage 3-4, Clonetics, Corp.) were thawed into EGM2 culture medium (Clonetics Corp) in T75 flasks. Fresh EGM2 medium was added to the flasks 24 hours later. Four or five days later, cells were exposed to another culture medium (F12K medium supplemented with 10% fetal bovine serum (FBS), 60 μg/mL endothelial cell growth supplement (ECGS), and 0.1 mg/mL heparin). Exponentially-growing HUVEC cells were used in experiments thereafter. Ten to twelve thousand HUVEC cells were plated in 96-well dishes in 100 μl of rich, culture medium (described above). The cells were allowed to attach for 24 hours in this medium. The medium was then removed by aspiration and 105 μl of starvation media (F12K+1% FBS) was added to each well. After 24 hours, 15 μl of test agent dissolved in 1% DMSO in starvation medium or this vehicle alone was added into each treatment well; the final DMSO concentration was 0.1%. One hour later, 30 μl of VEGF (30 ng/mL) in starvation media was added to all wells except those containing untreated controls; the final VEGF concentration was 6 ng/mL. Cellular proliferation was quantified 72 hours later by MTT dye reduction, at which time cells were exposed for 4 hours MTT (Promega Corp.).
For screening compound library plates, one or two concentrations (one well per concentration) were employed, and the % inhibition was calculated by the following formula:
% inhibition=(control−test)÷(control−starvation)
% inhibition=(control-treated)/(control-starvation)×100

SMILES | IC50
NC(=O)c1ccccc1Sc1ccc2c(/C=C/c3ccccn3)n[nH]c2c1 [Example 35(d), 6-(2-Carbamoylphenylsulfanyl)-3-E-[2-(pyridin-2-yl)ethenyl]-1H-indazole] | > 0.1 µM
O=C(N/N=C/C(F)(F)F)c1ccccc1Sc1ccc2c(/C=C/c3ccccn3)n[nH]c2c1 [Example 36(c)] | > 0.03 µM

same assay, conditions: Library I, Y = CO; nominal concentration of 10 nM; crude reaction mixtures

SMILES | % inhibition of the proliferation of HUVEC
O=C(NCCN1CCOCC1)c1ccc2c(-c3nc4ccccc4[nH]3)n[nH]c2c1 | −1%
O=C(c1ccc2c(-c3nc4ccccc4[nH]3)n[nH]c2c1)N1CCOCC1 | 10%
O=C(Nc1ccc(O)cc1)c1ccc2c(-c3nc4ccccc4[nH]3)n[nH]c2c1 [drawing 585] | 33%
NC(=O)C1CCCN(C(=O)c2ccc3c(-c4nc5ccccc5[nH]4)n[nH]c3c2)C1 (centres unmarked) | 3%
O=C(Nc1ccncc1)c1ccc2c(-c3nc4ccccc4[nH]3)n[nH]c2c1 | 33%

same assay, conditions: Library I, Y = NH; nominal concentration of 10 nM; crude reaction mixtures

SMILES | % inhibition of the proliferation of HUVEC
O=C(NCCN1CCOCC1)c1ccc2c(-c3nc4ccccc4[nH]3)n[nH]c2c1 | 15%
O=C(c1ccc2c(-c3nc4ccccc4[nH]3)n[nH]c2c1)N1CCOCC1 | −7%
O=C(Nc1ccc(O)cc1)c1ccc2c(-c3nc4ccccc4[nH]3)n[nH]c2c1 [drawing 585] | 3%
NC(=O)C1CCCN(C(=O)c2ccc3c(-c4nc5ccccc5[nH]4)n[nH]c3c2)C1 (centres unmarked) | 13%
O=C(Nc1ccncc1)c1ccc2c(-c3nc4ccccc4[nH]3)n[nH]c2c1 | 13%

same assay, conditions: Library I, Y = O; nominal concentration of 10 nM; crude reaction mixtures

SMILES | % inhibition of the proliferation of HUVEC
O=C(NCCN1CCOCC1)c1ccc2c(-c3nc4ccccc4[nH]3)n[nH]c2c1 | 30%
O=C(c1ccc2c(-c3nc4ccccc4[nH]3)n[nH]c2c1)N1CCOCC1 | 59%
O=C(Nc1ccc(O)cc1)c1ccc2c(-c3nc4ccccc4[nH]3)n[nH]c2c1 [drawing 585] | 32%
NC(=O)C1CCCN(C(=O)c2ccc3c(-c4nc5ccccc5[nH]4)n[nH]c3c2)C1 (centres unmarked) | 36%
O=C(Nc1ccncc1)c1ccc2c(-c3nc4ccccc4[nH]3)n[nH]c2c1 | 42%

same assay, conditions: Library II, Y=S; 0.5 mM (column head; text: nominal 0.5 nM); crude reaction mixtures

SMILES | % inhibition of the proliferation of HUVEC
CCOCCNC(=O)c1ccccc1Sc1ccc2c(/C=C/c3ccccn3)n[nH]c2c1 [drawing 732] | 53%
NC(=O)c1ccccc1Sc1ccc2c(/C=C/c3ccccn3)n[nH]c2c1 [H-X1] | 9%
CC1CCCCN1CCCNC(=O)c1ccccc1Sc1ccc2c(/C=C/c3ccccn3)n[nH]c2c1 (centres unmarked) | 25%
O=C(O)CNC(=O)c1ccccc1Sc1ccc2c(/C=C/c3ccccn3)n[nH]c2c1 | 8%
O=C(NC1CCCCC1)c1ccccc1Sc1ccc2c(/C=C/c3ccccn3)n[nH]c2c1 | 12%
O=C(NCCc1c[nH]cn1)c1ccccc1Sc1ccc2c(/C=C/c3ccccn3)n[nH]c2c1 | 23%
O=C(NC1CCN(Cc2ccccc2)CC1)c1ccccc1Sc1ccc2c(/C=C/c3ccccn3)n[nH]c2c1 | 44%
CC(C)OCCCNC(=O)c1ccccc1Sc1ccc2c(/C=C/c3ccccn3)n[nH]c2c1 | 34%
CN(CCCNC(=O)c1ccccc1Sc1ccc2c(/C=C/c3ccccn3)n[nH]c2c1)c1ccccc1 | 18%
C=CCC(NC(=O)c1ccc2c(-c3nc4ccccc4[nH]3)n[nH]c2c1)c1ccccn1 (centres unmarked) [drawing 609] | 37%
CN(C)CCCCCCNC(=O)c1ccccc1Sc1ccc2c(/C=C/c3ccccn3)n[nH]c2c1 | 42%
CC(NC(=O)c1ccccc1Sc1ccc2c(/C=C/c3ccccn3)n[nH]c2c1)c1ccccc1 (centres unmarked) | 30%
O=C(NCCCN1CCCCCC1)c1ccccc1Sc1ccc2c(/C=C/c3ccccn3)n[nH]c2c1 | 25%
CN1CCN(NC(=O)c2ccccc2Sc2ccc3c(/C=C/c4ccccn4)n[nH]c3c2)CC1 | 19%
NS(=O)(=O)c1ccc(CNC(=O)c2ccccc2Sc2ccc3c(/C=C/c4ccccn4)n[nH]c3c2)cc1 | 1%
CN1CCCC1CCNC(=O)c1ccccc1Sc1ccc2c(/C=C/c3ccccn3)n[nH]c2c1 (centres unmarked) | 30%

same assay, conditions: Library II, Y=S; 2 mM (column head; text: nominal 2 nM); crude reaction mixtures

SMILES | % inhibition of the proliferation of HUVEC
CCOCCNC(=O)c1ccccc1Sc1ccc2c(/C=C/c3ccccn3)n[nH]c2c1 [drawing 732] | 75%
CC1CCCCN1CCCNC(=O)c1ccccc1Sc1ccc2c(/C=C/c3ccccn3)n[nH]c2c1 (centres unmarked) | 15%
O=C(O)CNC(=O)c1ccccc1Sc1ccc2c(/C=C/c3ccccn3)n[nH]c2c1 | 23%
O=C(NC1CCCCC1)c1ccccc1Sc1ccc2c(/C=C/c3ccccn3)n[nH]c2c1 | 76%
O=C(NCCc1c[nH]cn1)c1ccccc1Sc1ccc2c(/C=C/c3ccccn3)n[nH]c2c1 | −32%
O=C(NC1CCN(Cc2ccccc2)CC1)c1ccccc1Sc1ccc2c(/C=C/c3ccccn3)n[nH]c2c1 | 19%
CC(C)OCCCNC(=O)c1ccccc1Sc1ccc2c(/C=C/c3ccccn3)n[nH]c2c1 | 99%
CN(CCCNC(=O)c1ccccc1Sc1ccc2c(/C=C/c3ccccn3)n[nH]c2c1)c1ccccc1 | 25%
C=CCC(NC(=O)c1ccc2c(-c3nc4ccccc4[nH]3)n[nH]c2c1)c1ccccn1 (centres unmarked) [drawing 609] | 16%
CN(C)CCCCCCNC(=O)c1ccccc1Sc1ccc2c(/C=C/c3ccccn3)n[nH]c2c1 | 22%
CC(NC(=O)c1ccccc1Sc1ccc2c(/C=C/c3ccccn3)n[nH]c2c1)c1ccccc1 (centres unmarked) | 94%
O=C(NCCCN1CCCCCC1)c1ccccc1Sc1ccc2c(/C=C/c3ccccn3)n[nH]c2c1 | −5%
CN1CCN(NC(=O)c2ccccc2Sc2ccc3c(/C=C/c4ccccn4)n[nH]c3c2)CC1 | −1%
NS(=O)(=O)c1ccc(CNC(=O)c2ccccc2Sc2ccc3c(/C=C/c4ccccn4)n[nH]c3c2)cc1 | 13%
CN1CCCC1CCNC(=O)c1ccccc1Sc1ccc2c(/C=C/c3ccccn3)n[nH]c2c1 (centres unmarked) | 23%

same assay, conditions: Library III; HUVEC proliferation; nominal concentration of 0.5 nM; crude reaction mixtures

SMILES | % inhibition
O=C(NC1CCCCC1C1CCCCC1)c1ccccc1Sc1ccc2c(/C=C/c3ccccn3)n[nH]c2c1 (centres unmarked) | 11%
COC(=O)c1nccnc1NC(=O)c1ccccc1Sc1ccc2c(/C=C/c3ccccn3)n[nH]c2c1 | 7%
COc1ccccc1CCNC(=O)c1ccccc1Sc1ccc2c(/C=C/c3ccccn3)n[nH]c2c1 | 10%
O=C(Nc1ccc2c(c1)C(=O)NC2=O)c1ccccc1Sc1ccc2c(/C=C/c3ccccn3)n[nH]c2c1 | −31%
NC(=O)c1ccc(NC(=O)c2ccccc2Sc2ccc3c(/C=C/c4ccccn4)n[nH]c3c2)nc1 | −2%
O=C(Nc1ccccn1)c1ccccc1Sc1ccc2c(/C=C/c3ccccn3)n[nH]c2c1 | −31%
O=C(NCC1COc2ccccc2O1)c1ccccc1Sc1ccc2c(/C=C/c3ccccn3)n[nH]c2c1 (centres unmarked) | −13%
O=C(Nc1ccccc1O)c1ccccc1Sc1ccc2c(/C=C/c3ccccn3)n[nH]c2c1 | 13%
O=C(Nc1ccc(O)c(Cl)c1)c1ccccc1Sc1ccc2c(/C=C/c3ccccn3)n[nH]c2c1 | −19%
Cc1cc(NC(=O)c2ccccc2Sc2ccc3c(/C=C/c4ccccn4)n[nH]c3c2)n[nH]1 | 11%
COc1cccc(C)c1NC(=O)c1ccccc1Sc1ccc2c(/C=C/c3ccccn3)n[nH]c2c1 | 8%
Cc1cccc(C(C)C)c1NC(=O)c1ccccc1Sc1ccc2c(/C=C/c3ccccn3)n[nH]c2c1 | −37%
CCc1ccc(C)nc1NC(=O)c1ccccc1Sc1ccc2c(/C=C/c3ccccn3)n[nH]c2c1 | −23%
CC(=O)c1sc(NC(=O)c2ccccc2Sc2ccc3c(/C=C/c4ccccn4)n[nH]c3c2)nc1C | −2%
O=C(NCc1cccs1)c1ccccc1Sc1ccc2c(/C=C/c3ccccn3)n[nH]c2c1 | 23%
O=C(Nc1ccc(Cl)cc1)c1ccccc1Sc1ccc2c(/C=C/c3ccccn3)n[nH]c2c1 | −12%
COc1ccc(NC(=O)c2ccccc2Sc2ccc3c(/C=C/c4ccccn4)n[nH]c3c2)cc1F | 9%
CC(C)(C)C1CCC(NC(=O)c2ccccc2Sc2ccc3c(/C=C/c4ccccn4)n[nH]c3c2)CC1 (centres unmarked) | 0%
O=C(Nc1ccc(O)cc1)c1ccccc1Sc1ccc2c(/C=C/c3ccccn3)n[nH]c2c1 | 52%
O=C(Nc1cc(-c2cccs2)n[nH]1)c1ccccc1Sc1ccc2c(/C=C/c3ccccn3)n[nH]c2c1 | −11%
O=C(Nc1ncccc1O)c1ccccc1Sc1ccc2c(/C=C/c3ccccn3)n[nH]c2c1 | 4%
Cc1cccc(NC(=O)c2ccccc2Sc2ccc3c(/C=C/c4ccccn4)n[nH]c3c2)n1 | 10%
Cc1nc(NC(=O)c2ccccc2Sc2ccc3c(/C=C/c4ccccn4)n[nH]c3c2)n[nH]1 | 0%
CC(C)c1ccccc1NC(=O)c1ccccc1Sc1ccc2c(/C=C/c3ccccn3)n[nH]c2c1 | −30%
N#CCc1ccc(NC(=O)c2ccccc2Sc2ccc3c(/C=C/c4ccccn4)n[nH]c3c2)cc1 | −13%
COC(=O)c1ccccc1NC(=O)c1ccccc1Sc1ccc2c(/C=C/c3ccccn3)n[nH]c2c1 | 3%
